Results: patent US10987316B2, “Compositions and methods for transdermal delivery of tertiary amine drugs” (priority 2013, dated 2021)

Assay: In vitro flux of rivastigmine liquid across human skin only
Assay type: in vitro ADME
Settings: rivastigmine liquid infinite dose 0.5 ml/cm^2
Procedure: The flux of rivatsigmine liquid (“infinite-dose” of 0.5 ml/cm^2) across systems prepared using different rate controlling membranes (with different vinyl acetate contents and different thicknesses) with or without a 5 mg/cm^2 silicone face adhesive was assessed in an in vitro flux study, as shown below.

CCN(C)C(=O)Oc1cccc([C@H](C)N(C)C)c1 [Rivastigmine, (S)-3-[1-(dimethylamino)ethyl]phenyl ethylmethylcarbamate]
Rivastigmine steady-state flux, human skin only: 32 ± 14 μg/cm^2/hr
